Experimental data published in patent US11827693B2, “Composition and methods based on neutralizing antibodies delivered intranasally for enhanced therapeutic efficacy” (priority 2013, dated 2023).

Tested on: H1 influenza virus A/Puerto Rico/8/1934 (PR8)
Set-up: species or system BALB/c mice
Conditions: mouse, in vivo

## CCOC(=O)C1=C[C@@H](OC(CC)CC)[C@H](NC(C)=O)[C@@H](N)C1 [Tamiflu]
  protection: completely ineffective in protection
